Data from patent US20230416205A1, “COMPOUNDS, COMPOSITIONS, AND METHODS” (Denali Therapeutics Inc, priority 2020, published 2023).
Read-outs that look alike come from different tables or passages of the source.

Test system: NLRP3
Assay: IL-1β secretion assay in PMA-differentiated, LPS/nigericin-stimulated THP-1 cells (384-well, ELISA read-out)
Assay type: cell-based, human
Details: Homo sapiens
Procedure, shortened: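 Secreted IL-1β quantified by capture ELISA from supernatants of PMA-differentiated THP-1 cells (30K per well). Sequence: LPS 25 ng/mL priming 2 h, compound 1 h, nigericin 2 h; dose-responses normalized between high (LPS plus 5 μM nigericin) and low (LPS alone) controls.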

[1] = THP-1, IL-1β secretion, PMA-differentiated THP-1 cells, LPS then nigericin stimulation, ELISA read at 450 nm, read-out: Activity
[2] = THP-1, Table 4, IL-1β secretion, LPS/nigericin-stimulated THP-1 cells, read-out: IC50

| SMILES | IC50 [1] | IC50 [2] |
| --- | --- | --- |
| CC1CC(NC(=O)CN2CC3(CC3)c3cc(Br)ccc3C2=O)C1 (stereo not drawn) [Example 52, 2-(6-bromo-1-oxo-spiro[3H-isoquinoline-4,1′-cyclopropane]-2-yl)-N-(3-methylcyclobutyl)acetamide] | < 10 µM | 2.08 µM |
| CC12CC(NC(=O)CN3CC4(CC4)c4cc(Br)ccc4C3=O)(CO1)C2 [Example 53, 2-(6-bromo-1-oxo-spiro[3H-isoquinoline-4,1′-cyclopropane]-2-yl)-N-(1-methyl-2-oxabicyclo[2.1.1]hexan-4-yl)acetamide] | < 10 µM | 7.83 µM |
| O=C(CN1CC2(CC2)c2cc(Br)ccc2C1=O)N[C@H]1C[C@H](C(F)(F)F)C1 [Example 54, 2-(6-bromo-1-oxo-spiro[3H-isoquinoline-4,1′-cyclopropane]-2-yl)-N-[trans-3-(trifluoromethyl)cyclobutyl]acetamide] | < 10 µM | 1.55 µM |
| O=C(CN1CC2(CC2)c2cc(Br)ccc2C1=O)NC1CC(O)(C(F)(F)F)C1 (stereo not drawn) [Example 55, 2-(6-bromo-1-oxo-spiro[3H-isoquinoline-4,1′-cyclopropane]-2-yl)-N-[cis-3-hydroxy-3-(trifluoromethyl)cyclobutyl]acetamide] | < 10 µM | 0.861 µM |
| O=C(CN1CC2(CC2)c2cc(Br)ccc2C1=O)NC12CCC(CC1)CC2 [Example 56, N-(1-bicyclo[2.2.2]octanyl)-2-(6-bromo-1-oxo-spiro[3H-isoquinoline-4,1′-cyclopropane]-2-yl)acetamide] | < 10 µM | 7.92 µM |
| O=C(CN1CC2(CC2)c2cc(Br)ccc2C1=O)NC12CCC(O)(CC1)CC2 [Example 57, 2-(6-bromo-1-oxo-spiro[3H-isoquinoline-4,1′-cyclopropane]-2-yl)-N-(4-hydroxy-1-bicyclo[2.2.2]octanyl)acetamide] | < 10 µM | 5.92 µM |
| O=C(CN1CC2(CC2)c2cc(Br)ccc2C1=O)NC1CCCC(O)C1 (stereo not drawn) [Example 58, 2-(6-bromo-1-oxo-spiro[3H-isoquinoline-4,1′-cyclopropane]-2-yl)-N-(3-hydroxycyclohexyl)acetamide] | < 10 µM | 3.09 µM |
| CN1CC(NC(=O)CN2CC3(CC3)c3cc(Br)ccc3C2=O)CC1=O (stereo not drawn) [Example 59, 2-(6-bromo-1-oxo-spiro[3H-isoquinoline-4,1′-cyclopropane]-2-yl)-N-(1-methyl-5-oxo-pyrrolidin-3-yl)acetamide] | > 15 µM | 18.3 µM |
| O=C(CN1CC2(CC2)c2cc(Br)ccc2C1=O)NC1CC(OC(F)F)C1 (stereo not drawn) [Example 60, 2-(6-bromo-1-oxo-spiro[3H-isoquinoline-4,1′-cyclopropane]-2-yl)-N-[3-(difluoromethoxy)cyclobutyl]acetamide] | < 10 µM | 8.68 µM |
| O=C(CN1CC2(CC2)c2cc(Br)ccc2C1=O)NC1CC2(COC2)C1 [Example 61, 2-(6-bromo-1-oxo-spiro[3H-isoquinoline-4,1′-cyclopropane]-2-yl)-N-(2-oxaspiro[3.3]heptan-6-yl)acetamide] | < 10 µM | 2.75 µM |
| CCN1CC(NC(=O)CN2CC3(CC3)c3cc(Br)ccc3C2=O)CCC1=O (stereo not drawn) [Example 62, 2-(6-bromo-1-oxo-spiro[3H-isoquinoline-4,1′-cyclopropane]-2-yl)-N-(1-ethyl-6-oxo-3-piperidyl)acetamide] | 10 to 15 µM | 12.1 µM |
| CC(C)(O)CNC(=O)CN1CC2(CC2)c2cc(Br)ccc2C1=O [Example 63, 2-(6-bromo-1-oxo-spiro[3H-isoquinoline-4,1′-cyclopropane]-2-yl)-N-(2-hydroxy-2-methyl-propyl)acetamide] | > 15 µM | 16.5 µM |
| O=C(CN1CC2(CC2)c2cc(Br)ccc2C1=O)N[C@H]1C[C@@H](CO)C1 [Example 64, 2-(6-bromo-1-oxo-spiro[3H-isoquinoline-4,1′-cyclopropane]-2-yl)-N-[cis-3-(hydroxymethyl)cyclobutyl]acetamide] | < 10 µM | 6.4 µM |
| N#CC1CC(NC(=O)CN2CC3(CC3)c3cc(Br)ccc3C2=O)C1 (stereo not drawn) [Example 65, 2-(6-bromo-1-oxo-spiro[3H-isoquinoline-4,1′-cyclopropane]-2-yl)-N-(3-cyanocyclobutyl)acetamide] | < 10 µM | 6.86 µM |
| CC(C)(O)C1CCN(C(=O)CN2CC3(CC3)c3cc(Br)ccc3C2=O)C1 (stereo not drawn) [Example 66, 6-bromo-2-[2-[3-(1-hydroxy-1-methyl-ethyl)pyrrolidin-1-yl]-2-oxo-ethyl]spiro[3H-isoquinoline-4,1′-cyclopropane]-1-one] | > 15 µM | 26.2 µM |
| O=C(CN1CC2(CC2)c2cc(Br)ccc2C1=O)NC1CC(F)(F)C1 [Example 67, 2-(6-bromo-1-oxo-spiro[3H-isoquinoline-4,1′-cyclopropane]-2-yl)-N-(3,3-difluorocyclobutyl)acetamide] | < 10 µM | 8.75 µM |
| CC1(O)CCN(C(=O)CN2CC3(CC3)c3cc(Br)ccc3C2=O)C1 (stereo not drawn) [Example 68, 6-bromo-2-[2-(3-hydroxy-3-methyl-pyrrolidin-1-yl)-2-oxo-ethyl]spiro[3H-isoquinoline-4,1′-cyclopropane]-1-one] | > 15 µM | 28.6 µM |
| CC1CN(CC(=O)NC2CC(C)(O)C2)C(=O)c2ccc(Br)cc21 (stereo not drawn) [Example 69, 2-(6-bromo-4-methyl-1-oxo-3,4-dihydroisoquinolin-2-yl)-N-(cis-3-hydroxy-3-methyl-cyclobutyl)acetamide] | < 10 µM | 0.643 µM |
| O=C(CN1CC2(CC2)c2cc(Br)ccc2C1=O)N[C@@H]1CCCN(C2CCC2)C1 [Example 70, 2-(6-bromo-1-oxo-spiro[3H-isoquinoline-4,1′-cyclopropane]-2-yl)-N-[(3R)-1-cyclobutyl-3-piperidyl]acetamide] | < 10 µM | 0.191 µM |
| COC(=O)N1CCC[C@@H](NC(=O)CN2CC3(CC3)c3cc(Br)ccc3C2=O)C1 [Example 71, methyl (3R)-3-[[2-(6-bromo-1-oxo-spiro[3H-isoquinoline-4,1′-cyclopropane]-2-yl)acetyl]amino]piperidine-1-carboxylate] | < 10 µM | 6.96 µM |
| N#Cc1ccc(NC(=O)CN2CC3(CC3)c3cc(Br)ccc3C2=O)nc1 [Example 72, 2-(6-bromo-1-oxospiro[3H-isoquinoline-4,1′-cyclopropane]-2-yl)-N-(5-cyanopyridin-2-yl)acetamide] | < 10 µM | 0.511 µM |
| Cn1cc(NC(=O)CN2CC3(CC3)c3cc(Br)ccc3C2=O)ccc1=O [Example 73, 2-(6-bromo-1-oxo-spiro[3H-isoquinoline-4,1′-cyclopropane]-2-yl)-N-(1-methyl-6-oxo-3-pyridyl)acetamide] | 10 to 15 µM | 11.5 µM |
| CC1CN(CC(=O)Nc2ncccn2)C(=O)c2ccc(Br)cc21 (stereo not drawn) [Example 74, 2-(6-bromo-4-methyl-1-oxo-3,4-dihydroisoquinolin-2-yl)-N-pyrimidin-2-yl-acetamide] | < 10 µM | 1.76 µM |
| O=C(CN1CC2(CCCC2)c2cc(Br)ccc2C1=O)Nc1ncccn1 [Example 75, 2-(6-bromo-1-oxo-spiro[3H-isoquinoline-4,1′-cyclopentane]-2-yl)-N-pyrimidin-2-yl-acetamide] | 10 to 15 µM | 12.3 µM |
